Molecules are shown by their SMILES.

Data on three compounds can be found in patent US20200079757A1, “COMPOUNDS FOR THE TREATMENT OF RESPIRATORY DISEASES” (THE UNIVERSITY OF MELBOURNE, priority 2017, published 2020).

Experiment [1] concerns SCNN1A gene expression in BEAS-2B cells. Nature of the experiment: TGF-β-induced suppression of dexamethasone-induced SCNN1A gene expression in BEAS-2B cells. Type of experiment: cell-based. The following applies: for SCNN1A mRNA level, Dex / SCNN1A mRNA level, TGF-β / SCNN1A mRNA level, TGF-β/Dex / SCNN1A mRNA level, vehicle (no stimulus): BEAS-2B. The protocol: The primary assay for the activity of the novel CK1δ/ε inhibitors is the modulation of gene expression in the airway epithelial cell line, the BEAS-2B cells. The assay is conducted under several conditions. Generally, TGF-β or TNF-α is used to elicit fibrogenic or inflammatory genes, respectively. The agents are added at a concentration of 10 μM, or at the indicated concentrations for a period of 30 min prior to the addition of TGF-β/TNF-α which are incubated for a further 20 hours before the addition, in some experiments of the glucocorticoid, dexamethasone (Dex, 30 nM) for the final 4 hours of the experiment, prior to harvest of cellular RNA to measure by RT-qPCR the levels of mRNA of marker genes for inflammation and fibrogenesis. The inhaled corticosteroid (ICS), budesonide is also used in some experiments. Furthermore, the supernatants are harvested at the end of the incubation periods in selected experiments to measure the levels of CSF-2 or IL-8 by ELISA as described in (Tran et al. (2005) British Journal of Pharmacology, 145, 123-131). Prior to experimentation, BEAS-2B and A549 cells were incubated in serum-free DMEM containing 0.25% bovine serum albumin (BSA) and insulin-transferrin-selenium—containing supplement (Monomed A; CSL, Parkville, Melbourne, Australia). Where indicated, cells were treated with one of the series of synthesised compounds (0.3-10 μM) prior to exposure to 100 pM TGF-β1 (R&D Systems, Minneapolis, Minn.) or 300 pM bFGF (Promega, Madison, Wis.). Total RNA was extracted from cultured cells using illustra RNAspin Mini RNA Isolation Kit (GE Healthcare). RNA extracts were reverse-transcribed into cDNA using High-Capacity RNA-to-cDNA Kit (Applied Biosystems). Real-time PCR was then performed using a QuantStudio 6 Flex Real-Time PCR System using iTaq Universal SYBR green supermix and the following thermal protocol: 50° C. (2 min), 95° C. (10 min), then 40 cycles of 95° C. (15 sec), 60° C. (1 min). The threshold cycle (CT) values determined for target genes were normalized against those obtained for 18S ribosomal RNA (18S rRNA), which was included as internal control. The generation of specific PCR products was confirmed by dissociation curve analysis. In FIG. 1, the effects of SS9-010 are contrasted with those of PF670462 in an assay in BEAS-B cells measuring the induction of the glucocorticoid-regulated gene, SCNN1A encoding the protein epithelial sodium channel alpha subunit. Serum-starved BEAS-2B cells were treated with CK1δ/ε inhibitor PF670462 (1, 3, 10 μM) or SS9-010 (1, 3, 10 μM) 30 min prior to TGF-β1 (40 pM) for 24 hours, then stimulated with dexamethasone (30 nM) for 4 hours. RNA was then extracted and analyzed by RT-qPCR. Data are presented as mean±SEM for n=4 independent experiments. The potency of PF670462 and SS9-010 were similar.

In experiment [2] the test system is Col 1A gene expression in BEAS-2B cells. Nature of the experiment: TNFα and TGFβ induced Col 1A gene expression in BEAS-2B cells (RT-qPCR). Type of experiment: cell-based. The protocol: The primary assay for the activity of the novel CK1δ/ε inhibitors is the modulation of gene expression in the airway epithelial cell line, the BEAS-2B cells. The assay is conducted under several conditions. Generally, TGF-β or TNF-α is used to elicit fibrogenic or inflammatory genes, respectively. The agents are added at a concentration of 10 μM, or at the indicated concentrations for a period of 30 min prior to the addition of TGF-β/TNF-α which are incubated for a further 20 hours before the addition, in some experiments of the glucocorticoid, dexamethasone (Dex, 30 nM) for the final 4 hours of the experiment, prior to harvest of cellular RNA to measure by RT-qPCR the levels of mRNA of marker genes for inflammation and fibrogenesis. The inhaled corticosteroid (ICS), budesonide is also used in some experiments. Furthermore, the supernatants are harvested at the end of the incubation periods in selected experiments to measure the levels of CSF-2 or IL-8 by ELISA as described in (Tran et al. (2005) British Journal of Pharmacology, 145, 123-131).
Prior to experimentation, BEAS-2B and A549 cells were incubated in serum-free DMEM containing 0.25% bovine serum albumin (BSA) and insulin-transferrin-selenium—containing supplement (Monomed A; CSL, Parkville, Melbourne, Australia). Where indicated, cells were treated with one of the series of synthesised compounds (0.3-10 μM) prior to exposure to 100 pM TGF-β1 (R&D Systems, Minneapolis, Minn.) or 300 pM bFGF (Promega, Madison, Wis.).
Total RNA was extracted from cultured cells using illustra RNAspin Mini RNA Isolation Kit (GE Healthcare). RNA extracts were reverse-transcribed into cDNA using High-Capacity RNA-to-cDNA Kit (Applied Biosystems). Real-time PCR was then performed using a QuantStudio 6 Flex Real-Time PCR System using iTaq Universal SYBR green supermix and the following thermal protocol: 50° C. (2 min), 95° C. (10 min), then 40 cycles of 95° C. (15 sec), 60° C. (1 min). The threshold cycle (CT) values determined for target genes were normalized against those obtained for 18S ribosomal RNA (18S rRNA), which was included as internal control. The generation of specific PCR products was confirmed by dissociation curve analysis.
On the technique in general: Quantitative PCR measures a nucleic acid by following its amplification.

As to `CCCCCCCCN1CCC(n2cnc(-c3ccc(F)cc3)c2-c2ccnc(N)n2)CC1` [SS8-058, 4-(4-(4-Fluorophenyl)-1-[1-octylpiperidin-4-yl]-1H-imidazol-5-yl)pyrimidin-2-amine], in experiment [1] (agent 10 μM), the “SCNN1A mRNA level, Dex” value is 6.57 fold control; the “SCNN1A mRNA level, TGF-β” value worked out at 0.91 fold control; the “SCNN1A mRNA level, TGF-β/Dex” value was determined as 3.77 fold control; the “SCNN1A mRNA level, vehicle (no stimulus)” value amounted to 2.62 fold control. In experiment [2] (agent 10 μM), the “Col1A mRNA level, TGF-β” value worked out at 9.68 ± 1.25 fold control; the “Col1A mRNA level, TNF-α (n = 2)” value turned out to be 1.11 fold control; the “Col1A mRNA level, vehicle (no stimulus)” value was determined as 0.91 ± 0.19 fold control.

For `CNc1nccc(-c2c(-c3ccc(F)cc3)ncn2C2CCCCC2)n1` [SS9-010, 4-(1-Cyclohexyl-4-(4-fluorophenyl)-1H-imidazol-5-yl)-N-methylpyrimidin-2-amine], the “potency compared with PF670462, induction of glucocorticoid-regulated gene SCNN1A” value in experiment [1] (BEAS-2B, 1, 3, 10 μM, TGF-β1 40 pM 24 h, dexamethasone 30 nM 4 h) is given as “similar”. Also, in experiment [1] (agent 3 μM), the “SCNN1A mRNA level, Dex” value is listed as 3.77 ± 0.33 fold control; the “SCNN1A mRNA level, TGF-β” value is reported as 0.67 ± 0.03 fold control; the “SCNN1A mRNA level, TGF-β/Dex” value turned out to be 2.77 ± 0.31 fold control; the “SCNN1A mRNA level, vehicle (no stimulus)” value stood at 1.14 ± 0.05 fold control. Further, in experiment [2] (agent 10 μM), the “Col1A mRNA level, TGF-β” value is on record as 1.09 ± 0.10 fold control; the “Col1A mRNA level, TNF-α (n = 2)” value is 0.37 fold control; the “Col1A mRNA level, vehicle (no stimulus)” value amounted to 0.30 ± 0.02 fold control.

Consider `Cl.Nc1nccc(-c2c(-c3ccc(F)cc3)ncn2C2CCCCC2)n1` [PF670462, 4-(1-Cyclohexyl-4-(4-fluorophenyl)-1H-imidazol-5-yl)pyrimidin-2-amine hydrochloride, reference compound], for which, in experiment [1] (agent 3 μM), the “SCNN1A mRNA level, Dex” value was determined as 3.36 ± 0.25 fold control; the “SCNN1A mRNA level, TGF-β” value was 0.91 ± 0.08 fold control; the “SCNN1A mRNA level, TGF-β/Dex” value is 2.56 ± 0.08 fold control; the “SCNN1A mRNA level, vehicle (no stimulus)” value is 1.11 ± 0.10 fold control. Besides, in experiment [2] (agent 3 μM), the “Col1A mRNA level, TGF-β” value was found to be 1.91 ± 0.32 fold control; the “Col1A mRNA level, TNF-α (n = 2)” value was found to be 0.52 fold control; the “Col1A mRNA level, vehicle (no stimulus)” value is on record as 0.47 ± .04 fold control. In experiment [2] (agent 10 μM), the “Col1A mRNA level, TGF-β” value stood at 1.53 ± 0.33 fold control; the “Col1A mRNA level, TNF-α (n = 2)” value turned out to be 0.65 fold control; the “Col1A mRNA level, vehicle (no stimulus)” value is recorded as 0.65 ± 0.02 fold control.
